Experimental data as given in patent US10550103B2, “Dual inhibitors of PARP1 and CDK” (Accutar Biotechnology, priority 2017, dated 2020).
Where two headings read alike, the source gives them in different places.

Columns and labels:
PARP1 = target: T1, PARP1 (Homo sapiens, UniProt P09874); test: PARP inhibition assay (TREVIGEN kit, NAD fluorescence); format: biochemical; details: final PARP concentration 40 nM; inhibition curves FIG. 2A-2D
T1 construct: purchased TREVIGEN 4690-096-K
Description: The PARP inhibition assay was performed using a commercially available PARP inhibition assay kit (TREVIGEN, 4690-096-K).
A 1× buffer was prepared by diluting 10× buffer with dH2O.
The nicotinamide adenine dinucleotide (NAD) standards were prepared by diluting the NAD stock solution with the 1× buffer as provided in Table 2 below.
PARP1 inhibitors were prepared in 1× buffer at 50× final concentration. 1 μl of PARP inhibitors were added to the 96 well plate.
PARPminus (×20) and PARPplus (×40) solutions were prepared as provided below in Table 3.
The cycling mix(60×) was prepared as provided below in Table 4.
In the black 96 well plate provided with the kit, 25 μl of 1× buffer was added to wells A5 and A6. To wells B5 to G6, 25 μl of 2×NAD standards were added. To wells H1, H2, A7 to G12, 25 μl NAD2 μM were added. To wells A5 to H6, 1 μl DMSO were added.
The following stock solutions of olaparib and C3 were separately prepared: 500 nM, 2.5 μM, 5 μM, 25 μM, 50 μM, 0.5 mM, and 1 mM. […]
The 96 well plate was read with a fluorescent plate reader (544 nm excitation/590 nm emission filters). […]
The standards indicate that higher concentrations of NAD correspond to higher fluorescence. Because PARP1 consumes NAD, PARP1 inhibition was determined by fluorescence intensity.
Inhibition curves were prepared based on the fluorescence data. […]

MCF7 cells [1] = test: MCF7 cell proliferation assay; format: cell-based, human; details: days 1-4; FIG. 6, 7
Description: A cell proliferation assay was performed with MCF7 cells, which is a human breast cancer adenocarcima cell line which expresses PARP1, to compare the inhibitor effect of C2 (Abemaciclib), C2 in combination with letrozole (1 μM), C3, and C3 in combination with letrozole (1 μM). Cell proliferation results at increasing concentrations of C2 and C3 were measured at day 1 (FIG. 6A), day 2 (FIG. 6B), day 3 (FIG. 6C), and day 4 (FIG. 6D).

MB231 cells = test: MB231 cell proliferation assay; format: cell-based, human; details: days 1-4; FIG. 8, 9
Description: A cell proliferation assay was performed with MB231 cells, which is a human breast cancer adenocarcinoma cell line expressing a mutant CDKN2A, treated with C3 or olaparib. Cell proliferation results at increasing concentrations of C3 and olaparib were measured at day 1 (FIG. 8A), day 2 (FIG. 8B), day 3 (FIG. 8C), and day 4 (FIG. 8D).

HCC1395 cells = test: BRAC1 mutant triple negative breast cancer cell growth inhibition assay (Cell Titer Glo), HCC1395; format: cell-based
Description: (§1) HCC1937 cells and HCC1395 cells are both […], triple negative (ER, PR, HER2) breast cancer cell lines. The cells were maintained in RPMI1640 medium (Gibco A10491-01) supplemented with 10% FBS, and 1× Penicillin Streptomycin. The HCC1937 cells (ATCC® CRL-2336™) and HCC1395 cells (ATCC® CRL-2324™), respectively, were plated in 96 dark well plates at 0.4×10^4 cells/well.
(§2) Cell medium was replaced each day for 4 days.
(§3) To determine cell viability, the relative cell number was determined by the Cell Titer Glo reagent (Promega) according to the protocol. At each day of the assay, the 96 well plate and reagents were equilibrated at RT for 30 min. 100 μl of Cell Titer Glo reagent was added to each well. The contents of each well were mixed using a pipetter to induce cell lysis. The plate was allowed to incubate at RT for 30 min to stabilize the luminescent signal, and the luminescence was determined by a luminometer (Perkin Elmer EnSpire).

HCC1937 cells = test: BRAC1 mutant triple negative breast cancer cell growth inhibition assay (Cell Titer Glo), HCC1937; format: cell-based
Description: as §1, §2, §3

[2] = tested on: more than 480 kinase assays (403 non-mutant kinases); test: Kinase selectivity, DiscoverX KINOMEscan competition binding
Description: A kinase selectivity assay was performed with C3 using DiscoverX KINOMEscan™ (www.discoverx.com/, which is herein incorporated by reference in its entirety for all purposes). The KINOMEscan platform employs active site-directed competition binding assay to quantitatively measure interactions between test compounds (e.g., C3) and more than 480 kinase assays including clinically relevant mutants, lipid, atypical, and pathogen kinases, plus a growing panel of activation-state specific assays.
The data was interpreted using three selectivity score types (e.g., S(35); S(10); and S(1)) in order to provide a broad kinase selectivity picture (e.g., a selectivity score) of C3. The selectivity score was calculated using % Ctrl as a potency threshold (below) and provides a quantitative method of describing compound selectivity to facilitate comparison of different compounds. The three selectivity score types used to interpret the data are summarized below: S=Number of hits/Number of assays S(35)=(number of non-mutant kinases with % Ctrl<35)/(number of non-mutant kinases tested) S(10)=(number of non-mutant kinases with % Ctrl<10)/(number of non-mutant kinases tested) S(1)=(number of non-mutant kinases with % Ctrl<1)/(number of non-mutant kinases tested)

[3] = Pharmacokinetics in female BALB/c mice; format: in vivo; details: plasma; for MRT last: read-out: MRT(0-t)
Description: Pharmacokinetic parameters of the of C3 were measured after a single intraperitoneal injection (IP) of 10 mg/kg, or oral administration (PO) of 50 mg/kg in female BALB/c mice. Pharmacokinetic parameters measured include: elimination half-life (t1/2), time to reach maximum blood plasma concentration (Tmax); maximum blood plasma concentration (Cmax); area under the blood plasma concentration-time curve from time zero to the last detectable plasma concentration (AUC(0-t)); area under the blood plasma concentration-time curve from time zero to infinity (AUC(0-∞)); the mean residence time of the drug in the body from time zero to the last detectable plasma concentration (MRT(0-t)); apparent volume of distribution during terminal phase (Vz); and apparent total body clearance of the drug from plasma (CL).

MCF/E2 xenograft tumor = MCF/E2 xenograft tumor mouse model, tumor volume; format: in vivo; details: 50 mg/kg P.O. QD for 2 weeks; FIG. 14A
Description: (§4) A MCF/E2 xenograft tumor mouse model was used to evaluate the efficacy of C3 in the treatment of breast cancer. 50 mg/kg of C3 was administered, P.O., once daily (QD) for 2 weeks. Data was compared to a vehicle control.

[4] = MCF/E2 xenograft tumor mouse model, body weight; format: in vivo; details: 50 mg/kg P.O. QD for 2 weeks; FIG. 14B
Description: as §4

MCF7 cells [5] = test: MCF7 breast cancer cell viability assay; format: cell-based, human; details: FIG. 15A
Description: (§5) MCF7 is a breast cancer cell line isolated from a person. MDA-MB-231 is a cell line is an epithelial, human breast cancer cell line that was established from a pleural effusion of a person with a metastatic mammary adenocarcinomal. Cell assays were performed using increasing concentrations of C3 and cell viability was measured. Olaparib and palbocicilib were also used in the cell assays to compare the efficacy of C3 in decreasing cell viability of these breast cancer lines.

MDA-MB-231 cells = test: MDA-MB-231 breast cancer cell viability assay; format: cell-based, human; details: increasing concentrations; FIG. 15B
Description: as §5

[6] = % Ctrl<1, 403 non-mutant kinases, screening concentration 1000 nM
[7] = % Ctrl<10, 403 non-mutant kinases, screening concentration 1000 nM
[8] = % Ctrl<35, 403 non-mutant kinases, screening concentration 1000 nM

T1 sequence (P09874 whole entry): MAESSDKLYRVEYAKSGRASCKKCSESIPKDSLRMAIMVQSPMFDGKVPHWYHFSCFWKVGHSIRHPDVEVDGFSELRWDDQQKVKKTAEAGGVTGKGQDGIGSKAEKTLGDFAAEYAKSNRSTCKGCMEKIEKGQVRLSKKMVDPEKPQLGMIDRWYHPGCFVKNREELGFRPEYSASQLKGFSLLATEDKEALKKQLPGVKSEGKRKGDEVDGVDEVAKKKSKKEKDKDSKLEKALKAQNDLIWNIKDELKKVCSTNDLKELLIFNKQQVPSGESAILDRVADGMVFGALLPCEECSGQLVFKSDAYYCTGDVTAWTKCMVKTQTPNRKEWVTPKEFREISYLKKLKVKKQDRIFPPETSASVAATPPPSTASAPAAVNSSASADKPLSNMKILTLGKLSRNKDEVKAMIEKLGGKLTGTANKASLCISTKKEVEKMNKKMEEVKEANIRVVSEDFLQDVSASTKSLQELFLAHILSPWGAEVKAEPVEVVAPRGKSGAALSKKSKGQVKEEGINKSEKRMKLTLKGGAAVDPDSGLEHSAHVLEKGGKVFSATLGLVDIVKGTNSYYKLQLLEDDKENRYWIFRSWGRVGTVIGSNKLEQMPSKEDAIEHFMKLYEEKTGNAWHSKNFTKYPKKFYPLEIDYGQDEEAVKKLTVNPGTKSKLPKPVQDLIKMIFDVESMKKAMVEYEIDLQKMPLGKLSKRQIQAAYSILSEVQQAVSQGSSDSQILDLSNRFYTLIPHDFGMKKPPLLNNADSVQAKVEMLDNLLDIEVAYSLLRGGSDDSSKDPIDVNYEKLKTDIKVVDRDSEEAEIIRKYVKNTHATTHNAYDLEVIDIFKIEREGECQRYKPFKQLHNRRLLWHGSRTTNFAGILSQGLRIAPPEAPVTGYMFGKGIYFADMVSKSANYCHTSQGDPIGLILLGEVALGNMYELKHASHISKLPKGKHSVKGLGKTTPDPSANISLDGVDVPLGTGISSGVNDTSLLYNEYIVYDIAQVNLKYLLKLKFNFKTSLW

## Cc1nc2c(F)cc(-c3nc(Nc4ccc(N5CCN(C(=O)c6cc(Cc7n[nH]c(=O)c8ccccc78)ccc6F)CC5)cn4)ncc3F)cc2n1C(C)C [Compound C3]
PARP1
  PARP1 inhibition (comparison in words): superior to C2 (Abemaciclib) and similar to olaparib
MCF7 cells [1]
  inhibition of MCF7 cell proliferation: inhibitor of cell proliferation
MB231 cells
  inhibition of MB231 cell proliferation: stronger inhibitor of cell proliferation of MB231 human breast cancer adenocarcinoma cells than olaparib
HCC1395 cells; 10 μM, day 4, FIG. 10D
  viable HCC1395 cells: almost no HCC1395 cells were viable
HCC1937 cells; 10 μM, day 4, FIG. 11D
  viable HCC1937 cells: almost no HCC1937 cells were viable
[2]; [6]
  Number of Hits, S(1): 11
  Selectivity Score S(1): 0.027
[2]; [7]
  Number of Hits, S(10): 50
  Selectivity Score S(10): 0.124
[2]; [8]
  Number of Hits, S(35): 86
  Selectivity Score S(35): 0.213
[2]; KINOMEscan, 1000 nM
  kinase selectivity (in words): relatively selective kinase, with similar kinase selectivity as Abemaciclib
[3]; mouse, PO 50 mg/kg
  AUC(0-t): 1700 ng·h/mL
  Cmax: 292 ng/mL
  Tmax: 4 h
  MRT last: 3.62 h
[3]; mouse, single IP 10 mg/kg
  AUC(0-inf): 2670 ng·h/mL
  AUC(0-t): 2520 ng·h/mL
  Cmax: 284 ng/mL
  Tmax: 0.25 h
  half-life: 5.7 h
  MRT last: 6.3 h
[3]; single IP 10 mg/kg
  CL: 62.3432 mL/min/kg
  Vz: 30.75832 L/kg
MCF/E2 xenograft tumor
  change in tumor volume versus vehicle control: able to limit tumor growth compared to the vehicle control
[4]
  change in body weight versus vehicle control: does not causes changes in body weight
MCF7 cells [5]; increasing concentrations
  reduction of MCF7 cell viability (comparison in words): reduced cell viability of MCF7 cells at lower concentrations compared to both olaparib and palbocicilib
MDA-MB-231 cells
  reduction of MDA-MB-231 cell viability (comparison in words): more effective in reducing cell viability of MDA-NIB-231 cell than olaparib and palbocicilib

## O=C(c1cc(Cc2n[nH]c(=O)c3ccccc23)ccc1F)N1CCN(C(=O)C2CC2)CC1 [olaparib, reference compound]
HCC1395 cells; Homo sapiens, HCC1395, 96 h, day 4, FIG. 10D, read-out: viable HCC1395 cells
  viability at 10 µM: ~60%
HCC1937 cells; Homo sapiens, HCC1937, 96 h, day 4, FIG. 11D, read-out: viable HCC1937 cells
  viability at 10 µM: > 80%
MCF7 cells [5]
  concentration at which MCF7 cell viability was reduced to 0: did not reduce cell viability to 0% at the concentrations tested
